# Test system: rat pulmonary fibrosis model
# Assay: Rat pulmonary fibrosis model (bleomycin)
# Format: in vivo, Wistar rats
# Details: 3 mg/kg·d tail vein, 14 days; for VEGFprotein in lung tissue / MMP-2 expression in lung tissue / MMP-9 expression in lung tissue / TIMP-1 expression in lung tissue / VEGF-mRNA in lung tissue: rat lung; for VEGFprotein in lung tissue: ELISA; for MMP-2 expression in lung tissue / MMP-9 expression in lung tissue / TIMP-1 expression in lung tissue: immunohistochemistry; for VEGF-mRNA in lung tissue: reverse transcription PCR; for CAT in peripheral blood / SOD in peripheral blood: rat peripheral blood
# Procedure: (1) Reagents: bleomycin (4 mg/dose, Tianjin Taihe Pharmaceutical Co., Ltd.), mouse anti-mouse MMP monoclonal antibody (NEO Mark-ers Company), mouse anti-mouse TIMP-1 polyclonal antibody (Wuhan Shide Company), enzyme-linked immunosorbent assay (ELISA) kit (R&D Company of the United States), Quantscript RT Kit reverse transcription kit (Dalian TaKaRa Company).
# The rats were, according to the number of body weight, divided into the blank control group, model group, and CLY series treatment group by random array method, with 12 rats in each group, half male and half female. The rats in each group were anesthetized by intraperitoneal injection of 2% pentobarbital sodium ([…]), fixed on the operating table, and injected by tracheotomy in the neck. The blank control group was injected with normal saline (1.25 ml/kg), and the model group and CLY treatment group were injected with 5 U/mL bleomycin solution (5 mg/kg), once a day, for 14 consecutive days. From one week after the establishment of the model, the corresponding CLY compound solution (3 mg/kg·d) was injected into the tail vein of each treatment group, and the same amount of normal saline was injected into the tail vein of the blank control group and the model group, once a day, for 14 consecutive days.
# The peripheral venous blood of animals in each group was taken from the tail vein after modeling and 14 days after treatment, and the levels of superoxide dismutase (SOD) and catalase (CAT) in peripheral blood were measured. After taking blood from each group, the rats were sacrificed twice (after modeling and 14 days of treatment). The right lung tissue of the animals was stored in a refrigerator at −4° C. for detection of VEGF. The left lung tissue was routinely embedded in paraffin and sectioned. The expression of MMP subtype and TIMP-1 in the lung tissue of the rats was detected by immunohistochemistry. The right lung tissue was ground and homogenized, and the supernatant was taken after 3000 r/min high-speed centrifugation. The lung tissue VEGF protein was detected by ELISA, and the expression of VEGF-mRNA was detected by reverse transcription polymerase chain reaction.
structure (smiles),measurement,value
"CCN1CCC[C@@H](N(C(=O)c2ccc(-n3nnc4cccnc43)cc2)c2ncccc2Cl)C1 [CLY-2, (R)-4-(3H-[1,2,3]triazolo[4,5-b]pyridin-3-yl)-N-(3-chloropyridin-2-yl)-N-(1-ethylpiperidin-3-yl)benzamide]",VEGFprotein in lung tissue,51.18 ± 3.69 pg/mL
same,MMP-2 expression in lung tissue,2.51 ± 0.24
same,MMP-9 expression in lung tissue,3.36 ± 0.25
same,TIMP-1 expression in lung tissue,8.06 ± 0.49
same,VEGF-mRNA in lung tissue,0.71 ± 0.12
same,CAT in peripheral blood,14.28 ± 1.39 kU/g
same,SOD in peripheral blood,216.62 ± 13.55 U/ml
"CN1CCC[C@@H](N(C(=O)c2ccc(-n3nnc4cccnc43)cc2)c2ncccc2Cl)C1 [CLY-1, (R)-4-(3H-[1,2,3]triazolo[4,5-b]pyridin-3-yl)-N-(3-chloropyridin-2-yl)-N-(1-methylpiperidin-3-yl)benzamide]",VEGFprotein in lung tissue,52.16 ± 3.61 pg/mL
same,MMP-2 expression in lung tissue,2.43 ± 0.21
same,MMP-9 expression in lung tissue,3.32 ± 0.23
same,TIMP-1 expression in lung tissue,7.82 ± 0.45
same,VEGF-mRNA in lung tissue,0.76 ± 0.11
same,CAT in peripheral blood,14.13 ± 1.22 kU/g
same,SOD in peripheral blood,214.58 ± 13.53 U/ml
O=C(c1ccc(-c2ccccc2Cl)cc1)N(c1ncccc1Cl)[C@@H]1CCCNC1 [CLY-36],VEGFprotein in lung tissue,53.87 ± 3.73 pg/mL
same,MMP-2 expression in lung tissue,2.59 ± 0.23
same,MMP-9 expression in lung tissue,3.46 ± 0.25
same,TIMP-1 expression in lung tissue,7.63 ± 0.52
same,VEGF-mRNA in lung tissue,0.83 ± 0.13
same,CAT in peripheral blood,13.26 ± 1.26 kU/g
same,SOD in peripheral blood,221.76 ± 13.57 U/ml
"O=C(c1ccc(-n2nnc3cccnc32)cc1)N(c1ncccc1Cl)[C@@H]1CCNC1 [CLY-8, (R)-4-(3H-[1,2,3]triazolo[4,5-b]pyridin-3-yl)-N-(3-chloropyridin-2-yl)-N-(pyrrolidin-3-yl)benzamide]",VEGFprotein in lung tissue,53.16 ± 3.62 pg/mL
same,MMP-2 expression in lung tissue,2.44 ± 0.21
same,MMP-9 expression in lung tissue,3.31 ± 0.21
same,TIMP-1 expression in lung tissue,8.82 ± 0.53
same,VEGF-mRNA in lung tissue,0.79 ± 0.13
same,CAT in peripheral blood,14.75 ± 1.22 kU/g
same,SOD in peripheral blood,220.86 ± 13.78 U/ml
NC1CCCC(N(C(=O)c2ccc(-n3nnc4cccnc43)cc2)c2ncccc2Cl)C1 (centres unmarked) [CLY-11],VEGFprotein in lung tissue,49.86 ± 3.58 pg/mL
same,MMP-2 expression in lung tissue,2.52 ± 0.23
same,MMP-9 expression in lung tissue,3.53 ± 0.26
same,TIMP-1 expression in lung tissue,8.13 ± 0.38
same,VEGF-mRNA in lung tissue,0.76 ± 0.13
same,CAT in peripheral blood,13.96 ± 1.36 kU/g
same,SOD in peripheral blood,216.48 ± 13.16 U/ml

# Source: patent US20240300945A1, “CLY SERIES COMPOUND, PREPARATION METHOD THEREFOR AND USE THEREOF IN PREPARATION OF DRUGS” (NANJING WELLBEST PHARMACEUTICAL CO., LTD, priority 2021, published 2024)
